Results as given in the NIST ThermoML archive (doi:10.1016/j.jct.2004.12.014).

What was measured:
[1] = excess molar enthalpy (molar enthalpy of mixing); xn = mol fraction of the nth substance listed; conditions: 318.15 K, 101 kPa, Liquid
[2] = xn = mol fraction of the nth substance listed; conditions: 318.15 K, 101 kPa, Liquid

CCCCCCCCCCCCCCC [pentadecane] + CCCOC(=O)CC
Conditions | excess molar enthalpy [kcal/mol] | excess molar volume [m3/mol]
[1], x2 = 0.0908 | 0.0969 | –
[1], x2 = 0.2077 | 0.193 | –
[1], x2 = 0.3159 | 0.265 | –
[1], x2 = 0.4097 | 0.309 | –
[1], x2 = 0.481 | 0.33 | –
[1], x2 = 0.538 | 0.336 | –
[1], x2 = 0.5826 | 0.333 | –
[1], x2 = 0.6208 | 0.327 | –
[1], x2 = 0.6333 | 0.322 | –
[1], x2 = 0.6724 | 0.307 | –
[1], x2 = 0.7191 | 0.284 | –
[1], x2 = 0.7668 | 0.255 | –
[1], x2 = 0.8087 | 0.224 | –
[1], x2 = 0.8594 | 0.181 | –
[1], x2 = 0.9086 | 0.128 | –
[1], x2 = 0.96 | 0.0654 | –
[2], x2 = 0.0571 | – | 1.92e-07
[2], x2 = 0.121 | – | 3.65e-07
[2], x2 = 0.2189 | – | 6.37e-07
[2], x2 = 0.3124 | – | 8.36e-07
[2], x2 = 0.3919 | – | 9.5e-07
[2], x2 = 0.4644 | – | 1.011e-06
[2], x2 = 0.5327 | – | 1.042e-06
[2], x2 = 0.5945 | – | 1.032e-06
[2], x2 = 0.6507 | – | 9.93e-07
[2], x2 = 0.7004 | – | 9.51e-07
[2], x2 = 0.7486 | – | 8.75e-07
[2], x2 = 0.7919 | – | 7.84e-07
[2], x2 = 0.8316 | – | 6.85e-07
[2], x2 = 0.8692 | – | 5.77e-07
[2], x2 = 0.9037 | – | 4.49e-07
[2], x2 = 0.9384 | – | 3.2e-07
[2], x2 = 0.9689 | – | 1.72e-07

CCCCCCCCCCCCCCC [pentadecane] + CCOC(=O)CC
Conditions | excess molar enthalpy [kcal/mol] | excess molar volume [m3/mol]
[1], x2 = 0.1045 | 0.128 | –
[1], x2 = 0.2122 | 0.227 | –
[1], x2 = 0.3158 | 0.312 | –
[1], x2 = 0.4055 | 0.364 | –
[1], x2 = 0.4848 | 0.392 | –
[1], x2 = 0.5368 | 0.399 | –
[1], x2 = 0.5811 | 0.398 | –
[1], x2 = 0.6068 | 0.393 | –
[1], x2 = 0.6156 | 0.391 | –
[1], x2 = 0.6409 | 0.382 | –
[1], x2 = 0.6796 | 0.366 | –
[1], x2 = 0.7199 | 0.341 | –
[1], x2 = 0.761 | 0.313 | –
[1], x2 = 0.8036 | 0.273 | –
[1], x2 = 0.846 | 0.229 | –
[1], x2 = 0.8889 | 0.181 | –
[1], x2 = 0.9311 | 0.124 | –
[1], x2 = 0.9692 | 0.0613 | –
[2], x2 = 0.0586 | – | 2.35e-07
[2], x2 = 0.1287 | – | 4.67e-07
[2], x2 = 0.2483 | – | 8.47e-07
[2], x2 = 0.3372 | – | 1.053e-06
[2], x2 = 0.4269 | – | 1.184e-06
[2], x2 = 0.502 | – | 1.246e-06
[2], x2 = 0.5673 | – | 1.252e-06
[2], x2 = 0.6288 | – | 1.223e-06
[2], x2 = 0.6845 | – | 1.156e-06
[2], x2 = 0.7304 | – | 1.087e-06
[2], x2 = 0.7744 | – | 9.92e-07
[2], x2 = 0.8148 | – | 8.88e-07
[2], x2 = 0.8537 | – | 7.69e-07
[2], x2 = 0.8864 | – | 6.38e-07
[2], x2 = 0.919 | – | 5.21e-07
[2], x2 = 0.9481 | – | 3.55e-07
[2], x2 = 0.9742 | – | 1.89e-07

CCCCCOC(=O)CC [pentyl propanoate] + CCCCCCC
Conditions | excess molar enthalpy [kcal/mol] | excess molar volume [m3/mol]
[1], x1 = 0.0541 | 0.0384 | –
[1], x1 = 0.1161 | 0.0728 | –
[1], x1 = 0.1808 | 0.101 | –
[1], x1 = 0.2438 | 0.123 | –
[1], x1 = 0.3073 | 0.141 | –
[1], x1 = 0.3672 | 0.152 | –
[1], x1 = 0.4224 | 0.157 | –
[1], x1 = 0.445 | 0.158 | –
[1], x1 = 0.4906 | 0.159 | –
[1], x1 = 0.5414 | 0.157 | –
[1], x1 = 0.5976 | 0.149 | –
[1], x1 = 0.6595 | 0.137 | –
[1], x1 = 0.725 | 0.119 | –
[1], x1 = 0.7935 | 0.0946 | –
[1], x1 = 0.8667 | 0.0645 | –
[1], x1 = 0.9349 | 0.0338 | –
[2], x1 = 0.0556 | – | 6.6e-08
[2], x1 = 0.1092 | – | 1.1e-07
[2], x1 = 0.182 | – | 1.41e-07
[2], x1 = 0.217 | – | 1.68e-07
[2], x1 = 0.2721 | – | 1.85e-07
[2], x1 = 0.3275 | – | 1.96e-07
[2], x1 = 0.3857 | – | 1.98e-07
[2], x1 = 0.4428 | – | 1.92e-07
[2], x1 = 0.5013 | – | 1.78e-07
[2], x1 = 0.5611 | – | 1.59e-07
[2], x1 = 0.6204 | – | 1.37e-07
[2], x1 = 0.6824 | – | 1.03e-07
[2], x1 = 0.742 | – | 7.7e-08
[2], x1 = 0.8047 | – | 4.9e-08
[2], x1 = 0.8674 | – | 2.9e-08
[2], x1 = 0.9323 | – | 9e-09
